Source: PubChem BioAssay AID2253 (Southern Research Specialized Biocontainment Screening …, 2010)
Where “and” joins values, the source holds several entries; their conditions need not be identical. Equal entries are not always repeated.

Test system: THP-1 viability, CellTiter-Glo luminescence, 72 h
Test: human monocytic cell viability reduction – S. typhimurium screen hits, cytotoxicity control for Salmonella PhoP regulon inhibitors, dose response (AID 2253)

SMILES	EC50
c1ccc(Nc2nc3ccccc3[nH]2)nc1	30.6 µM
O=C1c2ccccc2C(=O)c2[nH]c(=O)[nH]c21	4.83 µM
COc1cccc(-n2c(SCc3cc(=O)oc4cc(O)c(O)cc34)nc3ccccc3c2=O)c1	15.1 µM
CN1c2ccccc2C(C)(C)[C@]12C=Cc1cc(O)ccc1O2	15.4 µM
CC[n+]1c(/C=C/c2ccc(N(C)C)cc2)ccc2ccccc21	0.64 µM
CC1N(C)c2cc(NC(=O)c3ccco3)ccc2C1(C)C (stereo not given)	7.51 µM
CN1/C(=C\C=C\C2=[N+](C)c3ccc4ccccc4c3C2(C)C)C(C)(C)c2ccccc21	0.15 µM
C#CCOCCOCCOCCNc1nc(N2CCN(C(=O)CCCCCCCCCCNC(=O)[C@H](CO)n3cc(CCCCCN)nn3)CC2)nc(N2CCN(C(=O)CCCCCCCCCCNC(=O)[C@H](CCCN=C(N)N)n3cc(C[C@@H](C)CC)nn3)CC2)n1	8.9 µM
Cc1cc(-c2nnc(-c3ccccc3)c(-c3ccccc3)n2)c(C)o1	40.3 µM
COc1ccc(-c2cn[nH]c2-c2ccc(OCc3ccc([N+](=O)[O-])cc3)cc2O)cc1	15.1 µM
CCc1ccc(NC(=O)C[n+]2cc(-c3ccc(C)cc3)n3c2CCC3)cc1	5.74 µM
Brc1cccc(CNc2nc3ccccc3n2CCN2CCCCC2)c1	26.3 µM
COc1cccc(/C=N/Nc2ncc(C(F)(F)F)cc2Cl)c1O	0.97 µM
O=[N+]([O-])c1cc(/C=N/Nc2nc3ccccc3[nH]2)c(O)cc1O	1.21 µM
CCCCCCCCCCCCCCCC[N+](C)(C)C	0.79 µM
CC(=O)NC(c1ccc(C)cc1)c1cc([N+](=O)[O-])c2cccnc2c1O (stereo not given)	6.41 µM
Cc1ccc(C(C)C)c(OCC(=O)N2CCN(Cc3nc4cc([N+](=O)[O-])ccc4n3C)CC2)c1	25.9 µM
Oc1cccc2ccc[n+](CC(O)Cn3c4ccccc4c4ccccc43)c12 (stereo not given)	11.1 µM
Cc1ccsc1C=Nc1ccc(O)cc1	25.9 µM
CCCCCCCCn1c2c(c(=N)c3ccccc31)CCC2	0.98 µM
NC(=NCCCCCCN=C(N)/N=C(\N)Nc1ccc(Cl)cc1)/N=C(\N)Nc1ccc(Cl)cc1	3.09 µM and 3.04 µM and 2.9 µM
O=C(Nc1nc(-c2ccccn2)cs1)c1ccc(Cl)s1	0.8 µM
COc1cccc2[nH]c3c(N4CCN(Cc5ccc6c(c5)OCO6)CC4)ncnc3c12	47.9 µM

SMILES	EC50
NNC(=O)c1cc2ccccc2cc1O	11.9 µM
COc1ccccc1-n1c(SCc2cc(=O)oc3cc(O)ccc23)nc2ccccc2c1=O	21.6 µM
c1ccc2c(c1)CCN(c1ncnc3c1[nH]c1ccccc13)C2	10.7 µM
CC1CCCC(C)N1/N=C/c1c[nH]c2ccc(Br)cc12 (stereo not given)	14.4 µM
CCCCCCNC(=O)c1cn(CC)c2cc(N3CCN(C)CC3)c(F)cc2c1=O	16.1 µM
Cc1ccc(-n2sc3ccccc3c2=O)cc1S(=O)(=O)N1CCCCC1	2.75 µM
Cc1ccc(Nc2cc(C)c3ccc(O)cc3n2)cc1C	17 µM
c1ccc(-c2nnc(-c3ccccn3)nc2NC2CCCCC2)cc1	1.37 µM
CN(c1ccccc1)S(=O)(=O)c1cc(C(=O)Nc2nc3ccccc3[nH]2)ccc1Cl	24.1 µM
COc1cccc(Nc2nc(NCC3CCCO3)c3ccccc3n2)c1 (stereo not given)	2.88 µM
Cc1ccc(C(=O)Sc2cccccc2=O)cc1	2.64 µM
S=C(Nc1ccccc1)Nc1nc2ccccc2n1CCOc1ccc(Cl)cc1	15 µM
CCOc1ccc(-n2c(SCc3nc(-c4ccc(C)cc4)no3)nnc2-c2ccncc2)cc1	28.3 µM
Cc1[nH]c2ccccc2c1C1=NNC(=Nc2ccc(F)cc2)SC1	12.6 µM
N#Cc1c(NC(=O)c2cnccn2)sc2c1CCCC2	9.25 µM
Oc1ccc(-c2n[nH]c(=S)n2-c2ccc3c(c2)OCCO3)c(O)c1	33.8 µM
NC(N)=NN=C1CCCCCCCCCCC1	7.67 µM
COc1ccc(OC)c(/C=N/NC(=O)c2cc3c(OC)c(OC)ccc3[nH]2)c1	43.8 µM
NC1=NC[C@H](Cc2ccc(O)cc2)N1CCC12CC3CC(CC(C3)C1)C2	10.6 µM
O=C(NNC(=O)c1cnccn1)c1ccc(Cl)cc1	24.5 µM
NC1=NC[C@H](Cc2ccccc2)N1CCCCC1CCCCC1	3.71 µM
C=CS(=O)(=O)c1ccc(Oc2ccc(S(=O)(=O)C=C)cc2)cc1	1.4 µM
COc1cccc(/C=N/NC(=O)c2ccc(-c3ccccc3)cc2)c1O	1.08 µM

SMILES	EC50
Cc1cc(C)c2nc(NNC(=O)c3ccc(S(=O)(=O)N4CCc5ccccc5C4)cc3)sc2c1	1.69 µM
O=C(CSc1nc(Nc2ccccc2)nc(N2CCOCC2)n1)Nc1ccc([N+](=O)[O-])cc1	37.1 µM
C1CCC(C(CC2CCCCN2)C2CCCCC2)CC1 (stereo not given)	5.45 µM
CCOC(=O)c1sc(NC(=O)Nc2ccc(Cl)cc2)cc1C	10.3 µM
Cc1nc2c(=O)n(C)c(=O)n(C)c2nc1Cl	7.48 µM
COc1ccc(NS(=O)(=O)c2cc(C)ccc2NC(=O)c2cc(C)oc2C)cc1	0.26 µM
Cc1[nH]n(-c2ccccc2)c(=O)c1/C=N/Nc1nncc(-c2ccccc2)n1	0.57 µM
Cc1cc(C(=O)N/N=C/c2ccc(O)c(O)c2O)c(C)n1-c1ccccc1	4.48 µM
O=c1[nH]c(CSc2ncc(-c3ccc(F)cc3)n2Cc2ccco2)nc2ccccc12	47 µM
CC(C)COc1ccc(Cc2cnc(N)nc2N)cc1	36.9 µM
Cc1cc(C(=O)NNC(=S)NC(=O)/C=C/c2ccccc2Cl)n[nH]1	23.6 µM
NNC(=S)Nc1ccc(Cl)cc1	48.1 µM
Cc1onc(-c2ccccc2)c1C(=O)NC(=S)NNC(=O)c1ccc(O)cc1O	1.87 µM
COc1ccc(C(C[N+](=O)[O-])n2nc(C)cc2C)cc1 (stereo not given)	10.1 µM
O=[N+]([O-])c1ccc(O)c(/C=N/Nc2ccccn2)c1	0.42 µM
Clc1ccc(Nc2ncnc3c2cnn3-c2ccccc2)cc1	30.1 µM
CCn1c(C)cc(=S)c2ccccc21	48.2 µM
CCc1nn2cc(C(=O)c3cc(Cl)ccc3O)cnc2c1-c1ccc(F)cc1	38.3 µM
O=C(Nc1ccccc1)Nc1ncc([N+](=O)[O-])s1	15.8 µM
COc1ccccc1N1CCN(c2ccc(-c3ccccc3)nn2)CC1	2.61 µM
Cc1cc(C)c2ccc(N)nc2c1O	2.91 µM
CC(=O)NC(c1cccc([N+](=O)[O-])c1)c1ccc2cccnc2c1O (stereo not given)	0.49 µM
O=C(NC(NC(=S)Nc1ccc(Cl)c(Cl)c1)C(Cl)(Cl)Cl)c1ccco1 (stereo not given)	23.5 µM

SMILES	EC50
N=c1n(CC(=O)c2ccc(Br)s2)c2ccccc2n1Cc1ccccc1	7.56 µM
O=C(NC1CCCCC1)C(c1ccncc1)N(Cc1ccccc1)C(=O)c1ccc(-c2ccccc2)[nH]1 (stereo not given)	22.5 µM
c1ccc(Nc2ccnc(Nc3ccccc3)n2)cc1	35 µM
Oc1ccc(N=Cc2ccc(O)c(O)c2)cc1	7.64 µM
O=C(CCN1CCc2ccccc2C(c2ccccc2)C1)c1ccc2c(c1)OCCO2 (stereo not given)	18 µM
O=C(Cc1c[nH]c2ccccc12)N/N=C/c1ccccc1O	16.2 µM
Oc1c(I)cc(Cl)c2cccnc12	14.4 µM
CCCc1cnc(NCCNCC(O)COc2ccc(Cl)c(Cl)c2)nc1 (stereo not given)	11.8 µM
O=C(/C=C/c1ccco1)Oc1cc(Br)cc(/C=N/NC(=O)c2ccccc2O)c1	0.35 µM
O=C1/C(=C/c2ccccc2)NC(=S)N1C(c1ccccc1)c1ccccc1	4.48 µM
C(=Nc1ccc(Nc2ccccc2)cc1)c1ccc2ccccc2c1	25.8 µM
CCOC(=O)N1CCN(S(=O)(=O)c2ccc(C(=O)NNc3nc4c(C)cc(C)cc4s3)cc2)CC1	3.28 µM
CCc1ccc(-c2nn(-c3ccccc3)cc2CSC(=N)N)cc1	6.52 µM
COc1cccc(C(=O)Oc2c(CN3CCOCC3)cc(Cl)c3cccnc23)c1	7.11 µM
C=CCNc1ncnc2c1[nH]c1ccccc12	46 µM
CCOc1cc(/C=C2/NC(=O)N(CC(=O)Nc3cccc(C)c3)C2=O)ccc1OC	30.8 µM
CC1(C)CC(=O)C2=C(C1)OC1=C(C(=O)CC(C)(C)C1)C2c1ccc(O)cc1O	5.36 µM
O=C(CN1CCCC1)N/N=C/c1c(O)ccc2ccccc12	3.43 µM
O=C(NCc1ccco1)c1cccc(Nc2nc3ccc(Br)cc3[nH]2)c1	44.6 µM
CN1CCN(C(c2ccc(Br)cc2)c2cc(Cl)c3cccnc3c2O)CC1 (stereo not given)	3.87 µM
Clc1ccc(Cn2ncc3c(NCc4ccco4)ncnc32)c(Cl)c1	6.81 µM
c1ccc(Nc2cc(Nc3ccccc3)[nH]n2)cc1	23.7 µM
CCCCCCCCCC[N+](C)(C)CC/C=C1/c2ccccc2Sc2ccc(Cl)cc21	1.67 µM

SMILES	EC50
C=CCNc1ncnc2c1[nH]c1ccc(Cl)cc12	12.2 µM
O=C(Nc1ccc(Br)cc1)c1ccc(F)c(S(=O)(=O)NCc2cccs2)c1	21.7 µM
Cn1c(NCc2cc(Br)ccc2O)nc2ccccc21	37.5 µM
CCn1c(SCC(=O)Nc2ccc3c(c2)oc2ccccc23)nnc1-c1ccc(N)cc1	29.9 µM
Cc1nc2c(C(=O)NCCC(C)C)c[nH]n2c(=O)c1Cc1ccccc1F	30.7 µM
O=C1NC(=S)S/C1=C\C=C\c1ccc([N+](=O)[O-])o1	9.07 µM
CN(c1cccc(Cl)c1)S(=O)(=O)c1cccc(C(=O)Nc2nc3ccccc3[nH]2)c1	13.3 µM
CCC(C)(C)c1ccc(OCCCC[n+]2ccc(C)cc2)c(C(C)(C)CC)c1	1.48 µM
CCOC(=O)C1=Nc2ccccc2C1=[N+]=[N-]	27.2 µM
CC(O)CNCCNCc1c(OCc2ccccc2)ccc2ccccc12 (stereo not given)	14.2 µM
CCCCOc1ccc(Cc2cnc(N)nc2N)cc1	41.5 µM
O=C(c1ccco1)[C@@H]1[C@@H]2C(=O)N(c3ccc(F)cc3)C(=O)[C@@H]2[C@H]2C=Cc3ccccc3N21	23.5 µM
ON=C1/C(=N\O)CC2(C/C1=N/O)OCCO2	34.5 µM
c1csc(C2Nc3cccc4cccc(c34)N2)c1	48.8 µM
Cc1ccc(SC(c2ccc(C)cc2)C(Cn2cncn2)C(=O)c2ccccc2)cc1 (stereo not given)	49.8 µM
O=C1OC(/C(=C\Nc2ccc(F)cc2F)[N+](=O)[O-])c2ccccc21 (stereo not given)	31.7 µM
CCCCCCCCCCCCCCCC[N+](C)(C)CCN(Cc1ccc(OC)cc1)c1ncccn1	0.51 µM
CCN(CC)S(=O)(=O)c1cccc(NC(=O)Nc2cccc(C(F)(F)F)c2)c1	5.09 µM
CCCCCCC(=O)N(O)C1CC(=O)N(c2ccc(C)cc2)C1=O (stereo not given)	30.6 µM
N=c1n(Cc2ccccc2)c2ccccc2n1CC(O)COc1ccc(Cl)cc1Cl (stereo not given)	2.91 µM
Cc1ccc2nc(NNC(=O)c3ccc(S(=O)(=O)N4CCc5ccccc5C4)cc3)sc2c1	1.83 µM
O=C(/C=C/c1ccco1)NC(=S)Nc1ccc(N2CCCC2)cc1	9.59 µM
Oc1ccc(C=Nc2cccc3ncccc23)c(O)c1	43.3 µM
